In PubChem BioAssay AID256 (DTP/NCI, 2004):
Values joined by “and” are separate entries in the source; they are usually repeats but may differ in a detail not shown here. Identical values can stand only once. Toxic doses and inconclusive results are not listed. How the source made its calls: active means survival T/C of 150% or more; inactive means T/C below 125% in these data.

Test system: CD2F1 mice, L1210 leukemia ip, survival T/C
Test: NCI In Vivo Anticancer Drug Screen. Data for tumor model L1210 Leukemia (intraperitoneal) in CD2F1 (CDF1) mice
Settings: higher = longer survival
In short: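 Ratio T/C, where T is the treated-group value and C the vehicle-dosed control value, from mice implanted with a transplantable tumor.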

[1] = endpoint: mean survival time, dose: 25.0 mg/kg/injection, schedule: Q01DX009 (ip), vehicle: saline with Tween-80
[2] = endpoint: mean survival time, dose: 50.0 mg/kg/injection, schedule: Q01DX009 (ip), vehicle: saline with Tween-80
[3] = endpoint: mean survival time, dose: 100.0 mg/kg/injection, schedule: Q01DX009 (ip), vehicle: saline with Tween-80
[4] = endpoint: mean survival time, dose: 100.0 mg/kg/injection, schedule: Q04DX003 (ip), vehicle: saline with Tween-80
[5] = endpoint: mean survival time, dose: 100.0 mg/kg/injection, schedule: Q01DX009 (ip), vehicle: saline
[6] = endpoint: mean survival time, dose: 200.0 mg/kg/injection, schedule: Q01DX009 (ip), vehicle: saline
[7] = endpoint: mean survival time, dose: 400.0 mg/kg/injection, schedule: Q01DX009 (ip), vehicle: saline
[8] = endpoint: mean survival time, dose: 12.5 mg/kg/injection, schedule: Q01DX009 (ip), vehicle: saline with Tween-80
[9] = endpoint: mean survival time, dose: 200.0 mg/kg/injection, schedule: Q01DX009 (ip), vehicle: saline with Tween-80
[10] = endpoint: mean survival time, dose: 200.0 mg/kg/injection, schedule: Q04DX003 (ip), vehicle: saline with Tween-80
[11] = endpoint: mean survival time, dose: 400.0 mg/kg/injection, schedule: Q04DX003 (ip), vehicle: saline with Tween-80
[12] = endpoint: mean survival time, dose: 400.0 mg/kg/injection, schedule: Q01DX009 (ip), vehicle: saline with Tween-80

Measured: T/C

C=CCNC(=O)/C=C/C(=O)NCC=C
inactive: [1] 97 % of control | [2] 97 % of control | [3] 101 % of control | [4] 97 % of control

COC(=O)C1C2CCC(C2)C1C(=O)O (configuration not stated)
inactive: [5] 96 % of control | [6] 96 % of control | [7] 94 % of control

CN1C2CCC1C(CO)C(O)C2 (configuration not stated)
inactive: endpoint: mean survival time, dose: 100.0 mg/kg/injection, schedule: Q04DX002 (ip), vehicle: saline 105 % of control | endpoint: mean survival time, dose: 200.0 mg/kg/injection, schedule: Q04DX002 (ip), vehicle: saline 94 % of control | endpoint: mean survival time, dose: 400.0 mg/kg/injection, schedule: Q04DX002 (ip), vehicle: saline 97 % of control

CO[C@@]12[C@@H]3N[C@@H]3CN1C1=C(C(=O)C(NCCN(C)C)=C(C)C1=O)[C@@H]2COC(N)=O
inactive: endpoint: mean survival time, dose: 1.5 mg/kg/injection, schedule: Q01DX001 (ip), vehicle: water 106 % of control | endpoint: mean survival time, dose: 3.0 mg/kg/injection, schedule: Q01DX001 (ip), vehicle: distilled water + Tween-80 116 % of control | endpoint: mean survival time, dose: 3.0 mg/kg/injection, schedule: Q01DX001 (ip), vehicle: water 106 % of control | endpoint: mean survival time, dose: 6.0 mg/kg/injection, schedule: Q01DX001 (ip), vehicle: water 116 % of control | endpoint: mean survival time, dose: 24.0 mg/kg/injection, schedule: Q01DX001 (ip), vehicle: distilled water + Tween-80 96 % of control | endpoint: mean survival time, dose: 24.0 mg/kg/injection, schedule: Q01DX001 (ip), vehicle: water 93 % of control

O=C(Nc1ccccc1C(=O)O)c1cc([N+](=O)[O-])cc([N+](=O)[O-])c1
inactive: [8] 95 % of control and 97 % of control | [1] 101 % of control and 103 % of control | [2] 100 % of control and 101 % of control | [3] 95 % of control and 97 % of control | [9] 96 % of control

CCOP(=O)(OCC)OCC1OC(n2cnc3c(N)ncnc32)C(O)C1O (configuration not stated)
inactive: endpoint: median survival time, dose: 12.5 mg/kg/injection, schedule: Q01DX005 (ip), vehicle: distilled water + Tween-80 96 % of control | endpoint: median survival time, dose: 25.0 mg/kg/injection, schedule: Q01DX005 (ip), vehicle: distilled water + Tween-80 96 % of control | endpoint: median survival time, dose: 50.0 mg/kg/injection, schedule: Q01DX005 (ip), vehicle: distilled water + Tween-80 103 % of control | endpoint: median survival time, dose: 100.0 mg/kg/injection, schedule: Q01DX005 (ip), vehicle: distilled water + Tween-80 102 % of control | endpoint: median survival time, dose: 200.0 mg/kg/injection, schedule: Q01DX005 (ip), vehicle: distilled water + Tween-80 101 % of control

O=C(O)c1cc(Br)c(Br)s1
inactive: [4] 94 % of control | [10] 94 % of control

Cn1cnc2c(SCc3ccccc3)ncnc21
inactive: [4] 104 % of control | endpoint: mean survival time, dose: 132.0 mg/kg/injection, schedule: Q04DX003 (ip), vehicle: saline with Tween-80 118 % of control | [10] 102 % of control | endpoint: mean survival time, dose: 300.0 mg/kg/injection, schedule: Q04DX003 (ip), vehicle: saline with Tween-80 119 % of control

CS(=O)(=O)OC1CCCCC1c1ccccc1 (configuration not stated)
inactive: endpoint: mean survival time, dose: 100.0 mg/kg/injection, schedule: Q01DX001 (ip), vehicle: carboxymethylcellulose (CMC) 103 % of control | endpoint: mean survival time, dose: 200.0 mg/kg/injection, schedule: Q01DX001 (ip), vehicle: carboxymethylcellulose (CMC) 103 % of control | endpoint: mean survival time, dose: 400.0 mg/kg/injection, schedule: Q01DX001 (ip), vehicle: carboxymethylcellulose (CMC) 101 % of control

COC(=O)c1ccc(OC)c2nc3c(C=O)c(OC)cc(OC)c3nc12
inactive: endpoint: mean survival time, dose: 5.3 mg/kg/injection, schedule: Q01DX009 (ip), vehicle: saline with Tween-80 94 % of control | endpoint: mean survival time, dose: 8.0 mg/kg/injection, schedule: Q01DX009 (ip), vehicle: saline with Tween-80 92 % of control | endpoint: mean survival time, dose: 12.0 mg/kg/injection, schedule: Q01DX009 (ip), vehicle: saline with Tween-80 94 % of control | endpoint: mean survival time, dose: 18.0 mg/kg/injection, schedule: Q01DX009 (ip), vehicle: saline with Tween-80 97 % of control

C1=NCCN1
inactive: [5] 106 % of control | [4] 97 % of control | [6] 89 % of control | [10] 97 % of control | [11] 90 % of control

Cc1ccc(CCOS(=O)(=O)c2ccc(C)cc2)cc1
inactive: endpoint: mean survival time, dose: 100.0 mg/kg/injection, schedule: Q01DX001 (ip), vehicle: saline with Tween-80 97 % of control | endpoint: mean survival time, dose: 200.0 mg/kg/injection, schedule: Q01DX001 (ip), vehicle: saline with Tween-80 95 % of control | endpoint: mean survival time, dose: 400.0 mg/kg/injection, schedule: Q01DX001 (ip), vehicle: saline with Tween-80 95 % of control

Nc1nc(N)c2nc(CN(CCO)c3ccc(C(=O)NC(CCC(=O)O)C(=O)O)cc3)cnc2n1 (configuration not stated)
active: endpoint: mean survival time, dose: 2.0 mg/kg/injection, schedule: Q01DX009 (ip), vehicle: Klucel (hydroxypropylcellulose) (HPC) 162 % of control | endpoint: mean survival time, dose: 4.0 mg/kg/injection, schedule: Q01DX009 (ip), vehicle: Klucel (hydroxypropylcellulose) (HPC) 190 % of control | endpoint: mean survival time, dose: 8.0 mg/kg/injection, schedule: Q01DX009 (ip), vehicle: Klucel (hydroxypropylcellulose) (HPC) 171 % of control

CC(C)(C)OC(=O)N1CCCC1C(=O)O (configuration not stated)
inactive: [4] 96 % of control | [10] 101 % of control | [11] 110 % of control

CC(=O)NC(CSC(c1ccccc1)(c1ccccc1)c1ccccc1)C(=O)O (configuration not stated)
inactive: endpoint: mean survival time, dose: 25.0 mg/kg/injection, schedule: Q01DX009 (ip), vehicle: saline 101 % of control | endpoint: mean survival time, dose: 50.0 mg/kg/injection, schedule: Q01DX009 (ip), vehicle: saline 100 % of control | [5] 101 % of control

O=C(CC1CCCCC1)N/N=C/c1cccc([N+](=O)[O-])c1
inactive: [3] 90 % of control | [9] 93 % of control | [12] 90 % of control

CSCCC(NC(=O)CN)C(=O)O (configuration not stated)
inactive: [2] 96 % of control | [3] 92 % of control | [9] 100 % of control

Cc1cccc(N2C(=O)CSC2=S)c1
inactive: [4] 92 % of control | [10] 88 % of control | [11] 95 % of control

Cc1ccc(S(=O)(=O)NCC(Br)CBr)cc1 (configuration not stated)
inactive: [3] 93 % of control | [4] 100 % of control | [9] 93 % of control | [10] 98 % of control | [12] 96 % of control | [11] 100 % of control

COC(=O)C[N+]1(C)C2CCC1CC(Cl)C2 (configuration not stated)
inactive: endpoint: mean survival time, dose: 12.5 mg/kg/injection, schedule: Q01DX001 (ip), vehicle: saline 109 % of control | endpoint: mean survival time, dose: 25.0 mg/kg/injection, schedule: Q01DX001 (ip), vehicle: saline 113 % of control

CC(C)NC(=O)Oc1ccccc1C(=O)OCc1ccccc1
inactive: endpoint: mean survival time, dose: 50.0 mg/kg/injection, schedule: Q01DX009 (ip), vehicle: Klucel (hydroxypropylcellulose) (HPC) 115 % of control | endpoint: mean survival time, dose: 100.0 mg/kg/injection, schedule: Q01DX009 (ip), vehicle: Klucel (hydroxypropylcellulose) (HPC) 108 % of control | endpoint: mean survival time, dose: 200.0 mg/kg/injection, schedule: Q01DX009 (ip), vehicle: Klucel (hydroxypropylcellulose) (HPC) 112 % of control

N#CCc1ccccc1
inactive: endpoint: mean survival time, dose: 10.0 mg/kg/injection, schedule: Q01DX001 (ip), vehicle: saline 105 % of control | endpoint: mean survival time, dose: 20.0 mg/kg/injection, schedule: Q01DX001 (ip), vehicle: saline 105 % of control

CC(C)C1CCC2=C(CCC3C(C)(C(=O)O)CCCC23C)C1 (configuration not stated)
inactive: [4] 95 % of control | [10] 88 % of control | [11] 89 % of control

Cc1ccccc1NCS(=O)(=O)O
inactive: endpoint: mean survival time, dose: 100.0 mg/kg/injection, schedule: Q04DX003 (ip), vehicle: saline 101 % of control | endpoint: mean survival time, dose: 200.0 mg/kg/injection, schedule: Q04DX003 (ip), vehicle: saline 104 % of control | endpoint: mean survival time, dose: 400.0 mg/kg/injection, schedule: Q04DX003 (ip), vehicle: saline 98 % of control

COc1ccc(C(=O)c2no[n+]([O-])c2C(=O)c2ccc(OC)cc2)cc1
inactive: [8] 100 % of control | [1] 97 % of control | [2] 101 % of control | [3] 97 % of control and 98 % of control | [9] 98 % of control and 102 % of control | [12] 97 % of control and 110 % of control

CC(C)(O)CCNc1ncnc2c1ncn2C1OC(CO)C(O)C1O (configuration not stated)
inactive: endpoint: mean survival time, dose: 12.5 mg/kg/injection, schedule: Q01DX005 (ip), vehicle: water 101 % of control | endpoint: mean survival time, dose: 25.0 mg/kg/injection, schedule: Q01DX005 (ip), vehicle: water 95 % of control and 103 % of control | endpoint: mean survival time, dose: 50.0 mg/kg/injection, schedule: Q01DX005 (ip), vehicle: water 124 % of control and 103 % of control | endpoint: mean survival time, dose: 100.0 mg/kg/injection, schedule: Q01DX005 (ip), vehicle: water 108 % of control

Cc1ccc(S(=O)(=O)c2ccccc2)cc1
inactive: [5] 88 % of control | [6] 87 % of control | [7] 92 % of control

CCOC(=O)c1ccc(Oc2ncc([N+](=O)[O-])s2)cc1
inactive: endpoint: mean survival time, dose: 4.95 mg/kg/injection, schedule: Q01DX009 (ip), vehicle: saline with Tween-80 100 % of control | endpoint: mean survival time, dose: 7.42 mg/kg/injection, schedule: Q01DX009 (ip), vehicle: saline with Tween-80 95 % of control

O=C(SC(=O)c1ccccc1)c1ccccc1
inactive: [4] 97 % of control | [10] 100 % of control | [11] 94 % of control
